Results reported in patent publication US7034035B2, “Fungicidal mono-, bi-, and tri-cycloheteroalkyl amides and their compositions, methods of use and preparation” (priority 1999, dated 2006).

Columns and labels:
[1] = tested on: Rhizoctonia solani (RHIZSO); experiment: microbe, parasite or virus in culture; format: cell-based
[2] = tested on: Ustilago maydis (USTIMA); experiment: microbe, parasite or virus in culture; format: cell-based
Also: test concentration or dose not given here.

Structure (SMILES)	RHIZSO in vitro Growth Inhibition [1]	USTIMA in vitro Growth Inhibition [2]
COc1ccnc(C(=O)N[C@H]2C(O)[C@@H]3CC[C@H]2[C@@H]2CCCC[C@@H]23)c1O (stereo partly drawn) [Compound 293]	− (key: +: at least 80% growth inhibition; −: less than 80% growth inhibition)	− (key: +: at least 80% growth inhibition; −: less than 80% growth inhibition)
COc1ccnc(C(=O)N[C@H]2CC3CC2C[C@@H]3COCc2cccc(C(F)(F)F)c2)c1O (stereo partly drawn) [Compound 296]	+ (key: +: at least 80% growth inhibition; −: less than 80% growth inhibition)	− (key: +: at least 80% growth inhibition; −: less than 80% growth inhibition)
COc1ccnc(C(=O)N[C@@H]2CC3CC2C[C@@H]3COCc2cccc(C(F)(F)F)c2)c1O (stereo partly drawn) [Compound 297]	+ (key: +: at least 80% growth inhibition; −: less than 80% growth inhibition)	− (key: +: at least 80% growth inhibition; −: less than 80% growth inhibition)
COc1ccnc(C(=O)N[C@@H]2CC3CC2[C@@H](c2ccccc2)[C@@H]3C(=O)OC(C)C)c1O (stereo partly drawn) [Compound 300]	+ (key: +: at least 80% growth inhibition; −: less than 80% growth inhibition)	− (key: +: at least 80% growth inhibition; −: less than 80% growth inhibition)
COc1ccnc(C(=O)N[C@@H]2CC3CC2[C@@H](C(=O)OCCc2ccccc2)[C@H]3C(=O)OCC(C)C)c1O (stereo partly drawn) [Compound 301]	+ (key: +: at least 80% growth inhibition; −: less than 80% growth inhibition)	− (key: +: at least 80% growth inhibition; −: less than 80% growth inhibition)
COc1ccnc(C(=O)N[C@@H]2CC3CC2[C@H]2COC[C@@H]32)c1O (stereo partly drawn) [Compound 302]	− (key: +: at least 80% growth inhibition; −: less than 80% growth inhibition)	− (key: +: at least 80% growth inhibition; −: less than 80% growth inhibition)
COc1ccnc(C(=O)N[C@@H]2CC3CC2C2C(=O)N(CC(C)C)C(=O)C32)c1O (stereo partly drawn) [Compound 303]	− (key: +: at least 80% growth inhibition; −: less than 80% growth inhibition)	− (key: +: at least 80% growth inhibition; −: less than 80% growth inhibition)
COc1ccnc(C(=O)NC2CCN(Cc3ccc(C)cc3)CC2)c1O [Compound 306]	− (key: +: at least 80% growth inhibition; −: less than 80% growth inhibition)	− (key: +: at least 80% growth inhibition; −: less than 80% growth inhibition)
COc1ccnc(C(=O)NC2CCN(C(=O)CCc3ccccc3)CC2)c1O [Compound 309]	− (key: +: at least 80% growth inhibition; −: less than 80% growth inhibition)	− (key: +: at least 80% growth inhibition; −: less than 80% growth inhibition)
COc1ccnc(C(=O)NC2COC(C)C2)c1O (stereo not drawn) [Compound 310]	− (key: +: at least 80% growth inhibition; −: less than 80% growth inhibition)	− (key: +: at least 80% growth inhibition; −: less than 80% growth inhibition)
COc1ccnc(C(=O)NC2C[C@H](C)O[C@@](C)(Cc3ccccc3)C2)c1O (stereo partly drawn) [Compound 312]	− (key: +: at least 80% growth inhibition; −: less than 80% growth inhibition)	− (key: +: at least 80% growth inhibition; −: less than 80% growth inhibition)
COc1ccnc(C(=O)NC2C[C@H](C)O[C@](C)(Cc3ccccc3)C2)c1O (stereo partly drawn) [Compound 313]	− (key: +: at least 80% growth inhibition; −: less than 80% growth inhibition)	− (key: +: at least 80% growth inhibition; −: less than 80% growth inhibition)
CCC1(C)OCC(NC(=O)c2nccc(OC)c2O)CO1 (stereo not drawn) [Compound 314]	− (key: +: at least 80% growth inhibition; −: less than 80% growth inhibition)	− (key: +: at least 80% growth inhibition; −: less than 80% growth inhibition)
COc1ccnc(C(=O)NC2COC3(CC(C)(C)CC(C)(C)C3)OC2)c1O [Compound 315]	− (key: +: at least 80% growth inhibition; −: less than 80% growth inhibition)	− (key: +: at least 80% growth inhibition; −: less than 80% growth inhibition)
COc1ccnc(C(=O)N[C@H]2CO[C@@](C)(C(C)CC3=C(C)CCCC3(C)C)OC2)c1O (stereo partly drawn) [Compound 318]	+ (key: +: at least 80% growth inhibition; −: less than 80% growth inhibition)	− (key: +: at least 80% growth inhibition; −: less than 80% growth inhibition)
COc1ccnc(C(=O)NC2CC3OC2C(C)C(OC(=O)C(C)C)C3C)c1O (stereo not drawn) [Compound 320]	− (key: +: at least 80% growth inhibition; −: less than 80% growth inhibition)	− (key: +: at least 80% growth inhibition; −: less than 80% growth inhibition)
COc1ccnc(C(=O)N[C@H]2CC3OC2[C@H](C)[C@@H](OCc2ccccc2)[C@H]3C)c1O (stereo partly drawn) [Compound 321]	− (key: +: at least 80% growth inhibition; −: less than 80% growth inhibition)	− (key: +: at least 80% growth inhibition; −: less than 80% growth inhibition)
COCCCc1ccc2c(c1)OC(C)C(NC(=O)c1nccc(OC)c1O)C2=O (stereo not drawn) [Compound 322]	+ (key: +: at least 80% growth inhibition; −: less than 80% growth inhibition)	− (key: +: at least 80% growth inhibition; −: less than 80% growth inhibition)
COc1ccnc(C(=O)NC2C3CSC2CN(Cc2ccccc2)C3)c1O (stereo not drawn) [Compound 325]	− (key: +: at least 80% growth inhibition; −: less than 80% growth inhibition)	− (key: +: at least 80% growth inhibition; −: less than 80% growth inhibition)
COc1ccnc(C(=O)NC2O[C@H](CO)[C@H]3OC(C)(C)O[C@@H]23)c1O (stereo partly drawn) [Compound 329]	− (key: +: at least 80% growth inhibition; −: less than 80% growth inhibition)	− (key: +: at least 80% growth inhibition; −: less than 80% growth inhibition)
COc1ccnc(C(=O)N[C@@H]2OC[C@@H](OC(C)=O)[C@H](OC(C)=O)[C@H]2OC(C)=O)c1O [Compound 330]	− (key: +: at least 80% growth inhibition; −: less than 80% growth inhibition)	− (key: +: at least 80% growth inhibition; −: less than 80% growth inhibition)
CCCO[C@@H]1[C@@H](OCCC)[C@H](OCCC)CO[C@H]1NC(=O)c1nccc(OC)c1O [Compound 331]	− (key: +: at least 80% growth inhibition; −: less than 80% growth inhibition)	− (key: +: at least 80% growth inhibition; −: less than 80% growth inhibition)
COc1ccnc(C(=O)N[C@@H]2OC[C@@H](OCc3ccccc3)[C@H](OCc3ccccc3)[C@H]2OCc2ccccc2)c1O [Compound 332]	− (key: +: at least 80% growth inhibition; −: less than 80% growth inhibition)	− (key: +: at least 80% growth inhibition; −: less than 80% growth inhibition)
COc1ccnc(C(=O)N[C@H]2O[C@@H](C)[C@@H](OC(C)=O)[C@@H](OC(C)=O)[C@@H]2OC(C)=O)c1O [Compound 333]	− (key: +: at least 80% growth inhibition; −: less than 80% growth inhibition)	− (key: +: at least 80% growth inhibition; −: less than 80% growth inhibition)
